Results reported in EPA's ToxRefDB 2.

Experiments:
rat [1] = conditions: Sub-acute repeat dose toxicity, Oral, Gavage/Intubation, dose end: 36 day
mouse [2] = conditions: Sub-acute repeat dose toxicity, Oral, Gavage/Intubation, dose end: 14 day, group: systemic
rat [3] = conditions: Fertility (Segment I), Oral, Gavage/Intubation, dose end: 1 generation, group: parental
rat [4] = conditions: Sub-acute repeat dose toxicity, Oral, Gavage/Intubation, dose end: 14 day, group: systemic
rabbit = conditions: Prenatal developmental toxicity study; Oral; Gavage/Intubation; dose end: 19 GD; group: maternal; reproductive / reproductive performance / aborted / aborted + reproductive / reproductive performance / resorptions / resorptions + systemic…
mouse [5] = conditions: Subchronic oral toxicity in rodents, Gavage/Intubation, dose end: 91 day, group: systemic
rat [6] = conditions: Sub-acute repeat dose toxicity, Oral, Gavage/Intubation, dose end: 12 day
dog = conditions: Chronic toxicity, beagle, Oral, Feed, dose end: 52 week, group: systemic
rat [7] = conditions: Subchronic oral toxicity in rodents, wistar, Feed, dose end: 90 day, group: systemic, systemic / pathology gross / adrenal gland / discolored + systemic / pathology gross / adrenal gland / enlarged + systemic / pathology …
rat [8] = conditions: Multigenerational reproductive toxicity study, wistar, Oral, Feed, dose end: 2 generation
rat [9] = conditions: Carcinogenicity, wistar, Oral, Feed, dose end: 24 month, group: systemic
rat [10] = conditions: Prenatal developmental toxicity study, wistar, Dermal, Topical, dose end: 19 GD
rat [11] = conditions: Multigenerational reproductive toxicity study, wistar, Oral, Feed, dose end: 2 generation; remark: listed apart in the source
rat [12] = conditions: Subchronic oral toxicity in rodents, wistar, [Not Specified], dose end: 3 month, group: systemic
mouse [13] = conditions: Carcinogenicity, other, Oral, Feed, dose end: 18 month, group: systemic
rat [14] = conditions: Chronic toxicity; wistar; Oral; Feed; dose end: 104 week; group: systemic; systemic / pathology microscopic / eye / degeneration + systemic / pathology microscopic / prostate / fibrosis + systemic / pathology …
[15] = group: maternal, reproductive / offspring survival early / dead fetuses / dead fetuses + reproductive / offspring survival early / litter viability other / …
[16] = group: maternal, reproductive / offspring survival early / dead fetuses / dead fetuses + reproductive / reproductive performance / gestational length / …
[17] = group: systemic, systemic / in life observation / body weight / body weight gain + systemic / in life observation / body weight / offspring (pup) weight + …
[18] = group: systemic, systemic / in life observation / clinical signs / [other] + systemic / in life observation / clinical signs / body cold to touch + systemic…
[19] = systemic / clinical chemistry / [other] / [other] + systemic / clinical chemistry / cytochrome p450, nos / cytochrome p450, nos + systemic…
[20] = systemic / in life observation / body weight / body weight + systemic / in life observation / food consumption / food consumption
[21] = systemic / clinical chemistry / [other] / [other]
[22] = systemic / hematology / leukocyte (wbc) count differential / leukocyte (wbc) + systemic / in life observation / body weight / body weight …
[23] = systemic / clinical chemistry / [other] / [other] + systemic / hematology / leukocyte (wbc) count differential / leukocyte (wbc) + systemic…
[24] = group: maternal, reproductive / offspring survival early / litter size / litter size + reproductive / reproductive performance / postimplantation loss / …
[25] = group: systemic, systemic / in life observation / body weight / body weight gain + systemic / in life observation / clinical signs / emaciation + systemic / …
[26] = systemic / hematology / reticulocyte / reticulocyte + systemic / organ weight / adrenal gland / absolute + systemic / organ weight / adrenal…
[27] = group: offspring, systemic / organ weight / adrenal gland / absolute + systemic / organ weight / liver / absolute
[28] = group: parental, systemic / organ weight / epididymis / absolute
[29] = group: reproductive, reproductive / reproductive performance / fertility / fertility + reproductive / offspring survival early / birth index / live birth index
[30] = systemic / pathology microscopic / liver / eosinophilic focus + systemic / pathology microscopic / lung / foam cell aggregation
[31] = systemic / pathology microscopic / liver / eosinophilic focus + systemic / pathology microscopic / lung / foam cell aggregation + systemic…
[32] = group: developmental, developmental / developmental landmark / anogenital distance (agd) / anogenital distance (agd)
[33] = group: developmental, developmental / developmental landmark / anogenital distance (agd) / anogenital distance (agd) + developmental / developmental malformation…
[34] = group: maternal, systemic / organ weight / adrenal gland / absolute
[35] = group: maternal, systemic / organ weight / adrenal gland / absolute + systemic / organ weight / liver / absolute
[36] = group: offspring, systemic / organ weight / liver / absolute
[37] = group: parental, systemic / organ weight / epididymis / absolute + systemic / organ weight / adrenal gland / absolute
[38] = systemic / organ weight / kidney / nos + systemic / organ weight / prostate / nos + systemic / organ weight / adrenal gland / nos + systemic…
[39] = systemic / organ weight / prostate / nos + systemic / organ weight / adrenal gland / nos + systemic / organ weight / epididymis / nos + …
[40] = systemic / organ weight / adrenal gland / relative to body weight + systemic / organ weight / brain / relative to body weight + systemic / …

CC(C)(C)c1cc(/C=C2\SC(N)=NC2=O)cc(C(C)(C)C)c1O.CS(=O)(=O)O [Darbufelone mesylate]
LOAEL (rat [1]; [15]): > 25 mg/kg/day | NOAEL (rat [1]; [15]): ≥ 25 mg/kg/day | LEL (rat [1]; [16]): 5 mg/kg/day | NEL (rat [1]; [16]): < 5 mg/kg/day | LOAEL (rat [1]; [17]): > 25 mg/kg/day | NOAEL (rat [1]; [17]): ≥ 25 mg/kg/day | LEL (rat [1]; [18]): 5 mg/kg/day | NEL (rat [1]; [18]): < 5 mg/kg/day | LOAEL (mouse [2]; [19]): > 800 mg/kg/day | NOAEL (mouse [2]; [19]): ≥ 800 mg/kg/day | NEL (mouse [2]; systemic / organ weight / liver / absolute): < 35 mg/kg/day | LEL (rat [3]; systemic / in life observation / body weight / body weight): 75 mg/kg/day | LOAEL (rat [3]; [20]): > 100 mg/kg/day | NEL (rat [3]; [20]): 35 mg/kg/day | NOAEL (rat [3]; [20]): ≥ 100 mg/kg/day | LEL (rat [4]; [21]): 10 mg/kg/day | NEL (rat [4]; [21]): < 10 mg/kg/day | LOAEL (rat [4]; [22]): > 1000 mg/kg/day | NOAEL (rat [4]; [22]): ≥ 1000 mg/kg/day | LOAEL (rabbit): > 35 mg/kg/day | NOAEL (rabbit): ≥ 35 mg/kg/day | LOAEL (mouse [5]; [23]): > 300 mg/kg/day | NOAEL (mouse [5]; [23]): ≥ 300 mg/kg/day | NEL (mouse [5]; systemic / clinical chemistry / protein / protein): < 35 mg/kg/day | LEL (rat [6]; [24]): 75 mg/kg/day | LOAEL (rat [6]; [24]): > 75 mg/kg/day | NEL (rat [6]; [24]): 50 mg/kg/day | NOAEL (rat [6]; [24]): ≥ 75 mg/kg/day | LOAEL (rat [6]; [25]): > 75 mg/kg/day | NEL (rat [6]; [25]): 10 mg/kg/day | NOAEL (rat [6]; [25]): ≥ 75 mg/kg/day

C=CC1(C)OC(=O)N(c2cc(Cl)cc(Cl)c2)C1=O (stereo not drawn) [Vinclozolin]
LOAEL (dog; [26]): 47 mg/kg/day | NEL (dog; [26]): 2.4 mg/kg/day | NOAEL (dog; [26]): 4.8 mg/kg/day | LEL (dog; systemic / organ weight / adrenal gland / absolute + systemic / organ weight / adrenal gland / relative to body weight + systemic / clinical…): 4.8 mg/kg/day | LEL (rat [7]): 24 mg/kg/day | LOAEL (rat [7]): 24 mg/kg/day | NEL (rat [7]): 4.4 mg/kg/day | NOAEL (rat [7]): 4.4 mg/kg/day | LEL (rat [8]; [27]): 30 mg/kg/day | LOAEL (rat [8]; [27]): 30 mg/kg/day | NEL (rat [8]; [27]): 4.9 mg/kg/day | NOAEL (rat [8]; [27]): 4.9 mg/kg/day | LEL (rat [8]; [28]): 4.9 mg/kg/day | LOAEL (rat [8]; [28]): 4.9 mg/kg/day | NEL (rat [8]; [28]): < 4.9 mg/kg/day | NOAEL (rat [8]; [28]): < 4.9 mg/kg/day | NEL (rat [8]; group: reproductive, reproductive / reproductive performance / fertility / fertility): 101 mg/kg/day | LEL (rat [8]; [29]): 290 mg/kg/day | LOAEL (rat [8]; [29]): > 290 mg/kg/day | NOAEL (rat [8]; [29]): ≥ 290 mg/kg/day | LOAEL (rat [9]; [30]): 2.3 mg/kg/day | NOAEL (rat [9]; [30]): < 2.3 mg/kg/day | LEL (rat [9]; [31]): 2.3 mg/kg/day | NEL (rat [9]; [31]): < 2.3 mg/kg/day | LEL (rat [10]; [32]): 180 mg/kg/day | LOAEL (rat [10]; [32]): 180 mg/kg/day | NEL (rat [10]; [33]): 60 mg/kg/day | NOAEL (rat [10]; [33]): 60 mg/kg/day | LEL (rat [10]; [34]): 180 mg/kg/day | LOAEL (rat [10]; [34]): 180 mg/kg/day | NEL (rat [10]; [35]): 60 mg/kg/day | NOAEL (rat [10]; [35]): 60 mg/kg/day | LEL (rat [11]; [36]): 4.1 mg/kg/day | LOAEL (rat [11]; [36]): > 4.1 mg/kg/day | NEL (rat [11]; [36]): 2 mg/kg/day | NOAEL (rat [11]; [36]): ≥ 4.1 mg/kg/day | LEL (rat [11]; [37]): 2 mg/kg/day | LOAEL (rat [11]; [37]): > 4.1 mg/kg/day | NEL (rat [11]; [37]): < 2 mg/kg/day | NOAEL (rat [11]; [37]): ≥ 4.1 mg/kg/day | LOAEL (rat [12]; [38]): > 225 mg/kg/day | NOAEL (rat [12]; [38]): ≥ 225 mg/kg/day | LEL (rat [12]; [39]): 50 mg/kg/day | NEL (rat [12]; [39]): < 50 mg/kg/day | LOAEL (mouse [13]; systemic / in life observation / body weight / body weight gain): 20.6 mg/kg/day | LEL (mouse [13]; [40]): 2.1 mg/kg/day | NEL (mouse [13]; [40]): < 2.1 mg/kg/day | NOAEL (mouse [13]; [40]): 2.1 mg/kg/day | LEL (rat [14]): 7 mg/kg/day | LOAEL (rat [14]): 7 mg/kg/day | NEL (rat [14]): < 7 mg/kg/day | NOAEL (rat [14]): < 7 mg/kg/day
